# Assays:
# [1] = test system: TT (Thyroid Gland Carcinoma); assay: Bliss excess, mean over the matrix (fraction); higher = more synergy
# Procedure, shortened: (§1)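 Bliss excess equals the observed combination effect minus the expected value EA + EB − EA·EB, where EA and EB are the effects of each agent alone. Combination Emax is the second-highest inhibition within the matrix. Inhibition was scaled from CellTiter-Glo 2.0 luminescence, with 0 set by vehicle wells and 1 by blank wells, after 72 hours of two-drug dosing of cells plated in 1536-well plates.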
# [2] = test system: NCI-H2066 (Squamous Cell Lung Carcinoma); assay: as above
# Procedure, shortened: as §1
# [3] = test system: NCI-H64 (Small Cell Lung Carcinoma); assay: as above
# Procedure, shortened: as §1
# [4] = test system: CCK-81 (Colorectal Carcinoma); assay: as above
# Procedure, shortened: as §1
# [5] = test system: U-2-OS (Osteosarcoma); assay: as above
# Procedure, shortened: as §1
# [6] = test system: NY (Osteosarcoma); assay: as above
# Procedure, shortened: as §1
# [7] = test system: NCI-H1666 (Lung Adenocarcinoma); assay: as above
# Procedure, shortened: as §1
# [8] = test system: IGR-37 (Melanoma); assay: as above
# Procedure, shortened: as §1
# [9] = test system: PANC-10-05 (Pancreatic Carcinoma); assay: as above
# Procedure, shortened: as §1
# [10] = test system: FU97 (Gastric Carcinoma); assay: as above
# Procedure, shortened: as §1
# [11] = test system: COLO-320-HSR (Colorectal Carcinoma); assay: as above
# Procedure, shortened: as §1
# [12] = test system: KARPAS-422 (B-Cell Non-Hodgkin's Lymphoma); assay: as above
# Procedure, shortened: as §1
# [13] = test system: NCI-H1581 (Non-Small Cell Lung Carcinoma); assay: as above
# Procedure, shortened: as §1
# [14] = test system: ECC10 (Gastric Carcinoma); assay: as above
# Procedure, shortened: as §1
# [15] = test system: ONS-76 (Other Solid Carcinomas); assay: as above
# Procedure, shortened: as §1
# [16] = test system: VCaP (Prostate Carcinoma); assay: as above
# Procedure, shortened: as §1
# [17] = test system: CAPAN-2 (Pancreatic Carcinoma); assay: as above
# Procedure, shortened: as §1
# [18] = test system: TT (Thyroid Gland Carcinoma); assay: combination Emax (second highest fraction inhibited in the dose matrix, 72 h); higher = more inhibition; extreme values may be limits of the assay
# Procedure, shortened: as §1
# [19] = test system: NCI-H2066 (Squamous Cell Lung Carcinoma); assay: as above
# Procedure, shortened: as §1
# [20] = test system: NCI-H64 (Small Cell Lung Carcinoma); assay: as above
# Procedure, shortened: as §1
# [21] = test system: CCK-81 (Colorectal Carcinoma); assay: as above
# Procedure, shortened: as §1
# [22] = test system: U-2-OS (Osteosarcoma); assay: as above
# Procedure, shortened: as §1
# [23] = test system: NY (Osteosarcoma); assay: as above
# Procedure, shortened: as §1
# [24] = test system: NCI-H1666 (Lung Adenocarcinoma); assay: as above
# Procedure, shortened: as §1
# [25] = test system: IGR-37 (Melanoma); assay: as above
# Procedure, shortened: as §1
# [26] = test system: PANC-10-05 (Pancreatic Carcinoma); assay: as above
# Procedure, shortened: as §1
# [27] = test system: FU97 (Gastric Carcinoma); assay: as above
# Procedure, shortened: as §1
# [28] = test system: COLO-320-HSR (Colorectal Carcinoma); assay: as above
# Procedure, shortened: as §1
# [29] = test system: KARPAS-422 (B-Cell Non-Hodgkin's Lymphoma); assay: as above
# Procedure, shortened: as §1
# [30] = test system: NCI-H1581 (Non-Small Cell Lung Carcinoma); assay: as above
# Procedure, shortened: as §1
# [31] = test system: ECC10 (Gastric Carcinoma); assay: as above
# Procedure, shortened: as §1
# [32] = test system: ONS-76 (Other Solid Carcinomas); assay: as above
# Procedure, shortened: as §1
# [33] = test system: VCaP (Prostate Carcinoma); assay: as above
# Procedure, shortened: as §1
# [34] = test system: CAPAN-2 (Pancreatic Carcinoma); assay: as above
# Procedure, shortened: as §1
# [35] = test system: BICR22 (Oral Cavity Carcinoma); assay: Bliss excess, mean over the matrix (fraction); higher = more synergy
# Procedure, shortened: as §1
# [36] = test system: BICR22 (Oral Cavity Carcinoma); assay: combination Emax (second highest fraction inhibited in the dose matrix, 72 h); higher = more inhibition; extreme values may be limits of the assay
# Procedure, shortened: as §1
Compound,Bliss excess [1],Bliss excess [2],Bliss excess [3],Bliss excess [4],Bliss excess [5],Bliss excess [6],Bliss excess [7],Bliss excess [8],Bliss excess [9],Bliss excess [10],Bliss excess [11],Bliss excess [12],Bliss excess [13],Bliss excess [14],Bliss excess [15],Bliss excess [16],Bliss excess [17],combination Emax [18],combination Emax [19],combination Emax [20],combination Emax [21],combination Emax [22],combination Emax [23],combination Emax [24],combination Emax [25],combination Emax [26],combination Emax [27],combination Emax [28],combination Emax [29],combination Emax [30],combination Emax [31],combination Emax [32],combination Emax [33],combination Emax [34],Bliss excess [35],combination Emax [36]
"C=CCn1c(=O)c2cnc(Nc3ccc(N4CCN(C)CC4)cc3)nc2n1-c1cccc(C(C)(C)O)n1 [AZD1775] + CCc1c2c(nc3ccc(O)cc13)-c1cc3c(c(=O)n1C2)COC(=O)[C@]3(O)CC [SN-38] (first compound max 1 µM, partner max 0.3 µM)",-0.0838,-0.0821,-0.017,-0.0839,-0.0179,-0.0575,-0.0452,-0.107,-0.029,-0.0007,-0.0294,-0.0699,0.0811,-0.0663,-0.0392,-0.108,-0.0501,0.941,0.304,0.887,0.845,0.588,0.902,0.539,0.823,0.851,0.391,0.756,0.953,0.965,0.995,0.835,0.67,0.415,,
"C=CCn1c(=O)c2cnc(Nc3ccc(N4CCN(C)CC4)cc3)nc2n1-c1cccc(C(C)(C)O)n1 [AZD1775] + Nc1ccn([C@@H]2O[C@H](CO)[C@@H](O)C2(F)F)c(=O)n1 [Gemcitabine] (first compound max 1 µM, partner max 0.3 µM)",-0.0228,-0.0678,-0.0098,-0.0665,0.029,-0.0595,-0.0561,-0.0346,-0.0504,-0.0313,0.0066,-0.0482,0.124,0.0012,-0.0804,-0.0094,-0.065,0.486,0.217,0.905,0.81,0.724,0.7,0.46,0.674,0.631,0.362,0.811,0.847,0.948,0.821,0.559,0.839,0.43,-0.0077,0.943
"CN(CCO)CC[C@H](CSc1ccccc1)Nc1ccc(S(=O)(=O)NC(=O)c2ccc(N3CCC([C@@H](O)c4ccccc4-c4ccc(Cl)cc4)CC3)cc2)cc1S(=O)(=O)C(F)(F)F [AZD4320] + CC(=O)O[C@H]1C(=O)[C@@]2(C)[C@H]([C@H](OC(=O)c3ccccc3)[C@]3(O)C[C@H](OC(=O)[C@H](O)[C@@H](NC(=O)c4ccccc4)c4ccccc4)C(C)=C1C3(C)C)[C@]1(OC(C)=O)CO[C@@H]1C[C@@H]2O [Paclitaxel] (first compound max 1 µM, 7x7, partner max 3 µM)",0.184,0.124,0.237,-0.0433,0.0272,-0.0067,0.112,-0.0174,-0.0275,0.101,0.0041,0.141,0.0126,0.0272,0.0661,0.0175,0.0494,0.665,0.856,1,1,0.922,0.981,0.841,0.938,0.64,0.433,0.791,0.999,0.99,1,0.919,0.881,0.853,-0.0024,0.981
"CN(CCO)CC[C@H](CSc1ccccc1)Nc1ccc(S(=O)(=O)NC(=O)c2ccc(N3CCC([C@@H](O)c4ccccc4-c4ccc(Cl)cc4)CC3)cc2)cc1S(=O)(=O)C(F)(F)F [AZD4320] + CS(=O)(=O)CCNCc1ccc(-c2ccc3ncnc(Nc4ccc(OCc5cccc(F)c5)c(Cl)c4)c3c2)o1 [Lapatinib] (first compound max 1 µM, 7x7, partner max 10 µM)",0.012,-0.0109,0.0352,0.0767,0.0382,0.0035,0.0943,-0.0519,-0.021,-0.0253,-0.0638,0.0596,-0.0047,0.0318,0.0068,0.0003,0.0523,0.363,0.917,0.995,1,0.571,0.564,,0.282,0.72,,0.261,0.985,0.398,1,0.839,0.434,0.947,0.0806,0.958
"CN(CCO)CC[C@H](CSc1ccccc1)Nc1ccc(S(=O)(=O)NC(=O)c2ccc(N3CCC([C@@H](O)c4ccccc4-c4ccc(Cl)cc4)CC3)cc2)cc1S(=O)(=O)C(F)(F)F [AZD4320] + Nc1ccn([C@@H]2O[C@H](CO)[C@@H](O)C2(F)F)c(=O)n1 [Gemcitabine] (first compound max 1 µM, 7x7, partner max 0.3 µM)",0.0159,-0.0764,0.0845,-0.0153,0.0048,0.0595,-0.0121,0.0268,0.0148,0.0132,-0.078,0.067,0.0326,0.0147,0.003,-0.0098,-0.0009,0.615,0.338,0.998,0.589,0.501,0.966,0.501,0.872,0.582,0.349,0.569,0.97,0.482,1,0.724,0.547,0.586,-0.0171,0.95
"C[C@@H]1COCCN1c1cc(C2([S@](C)(=N)=O)CC2)nc(-c2ccnc3[nH]ccc23)n1 [AZD6738] + Nc1ccn([C@@H]2O[C@H](CO)[C@@H](O)C2(F)F)c(=O)n1 [Gemcitabine] (first compound max 10 µM, 7x7, partner max 0.3 µM)",0.0446,-0.0525,0.0857,0.0606,0.107,0.0071,-0.0247,-0.0837,0.0682,0.0306,0.0818,-0.0523,0.128,,-0.0644,0.0509,0.018,0.526,0.368,0.936,0.888,0.83,0.777,0.553,0.794,0.631,0.398,0.852,0.749,0.975,0.866,0.817,0.837,0.313,-0.007,0.958
"N#Cc1cnc(Nc2cc(NC[C@H]3CNCCO3)c(C(F)(F)F)cn2)cn1 [SRA737] + CCc1c2c(nc3ccc(O)cc13)-c1cc3c(c(=O)n1C2)COC(=O)[C@]3(O)CC [SN-38] (first compound max 10 µM, 7x7, partner max 0.3 µM)",-0.0712,-0.0192,-0.0347,-0.067,-0.0473,-0.0729,-0.0679,-0.111,-0.006,-0.0739,0.112,0.0019,0.135,-0.0016,-0.0554,-0.0295,-0.0041,0.883,0.345,0.818,0.78,0.61,0.928,,0.818,0.86,0.408,0.657,0.91,0.86,0.973,0.876,0.59,0.25,-0.0185,0.893
